Reference: patent publication US5200409A, “Composition and use of substituted 1,3-dithiolo-and 1,4-dithiinoquinoxalines as an antimicrobial” (The Dow Chemical Company, priority 1992, dated 1993)
Converted amounts (≈) assume the structure as drawn. Like-named read-outs stand apart in the source and are kept apart here.

Assays:
[1] = tested on: Escherichia coli (Ec); test: Minimum inhibitory concentration (MIC) in nutrient agar; type: cell-based, Escherichia coli ATCC 11229; details: 48 h
Protocol: (§1) The minimum inhibitory concentration (MIC) for the compounds listed in Table I is determined for 9 bacteria, using nutrient agar: and 7 yeast and fungi, using malt yeast agar. A one percent solution of the test compound is prepared in a mixture of acetone and water. Nutrient agar is prepared at pH 6.8, representing a neutral medium, and at pH 8.2, representing an alkaline medium. The nutrient agars are prepared by adding 23 g of nutrient agar to one-liter of deionized water. In addition, the alkaline medium is prepared by adjusting a 0.04M solution of N-[tris-(hydroxymethyl)methyl]-glycine buffered deionized water with concentrated sodium hydroxide to a pH of […]. Malt yeast agar is prepared by adding 3 g yeast extract and 45 g malt agar per liter of deionized water. The specific agar is dispensed in 30 ml aliquots into 25×200 mm test tubes, capped and autoclaved for 15 minutes at 115° C. The test tubes containing the agar are cooled in a water bath until the temperature of the agar is 48° C. Then, an appropriate amount of the one percent solution of the test compound is added (except in the controls where no compound is added) to the respective test tubes so that the final concentrations are 500, 250, 100, 50, 25, 10, 5, 2.5, 1.0 and zero parts per million of the test compound in the agar, thus having a known concentration of test compound dispersed therein. The contents of the test tubes are then transferred to respective petri plates. After drying for 24 hours, the petri plates containing nutrient agar are inoculated with bacteria and those containing malt yeast agar are inoculated with yeast and fungi.
(§2) The inoculation with bacteria is accomplished by using the following procedure. Twenty-four hour-cultures of each of the bacteria are prepared by incubating the respective bacteria in tubes containing nutrient broth for 24 hours at 30° C. in a shaker. Dilutions of each of the 24 hour-cultures are made so that nine separate suspensions (one for each of the nine test bacteria) are made, each containing 10^8 colony forming units (CFU) per ml of suspension of a particular bacteria. Aliquots of 0.3 ml of each of the bacterial suspensions are used to fill the individual wells of Steer's Replicator. For each microbial suspension, 0.3 ml was used to fill three wells (i.e., three wells of 0.3 ml each) so that for the nine different bacteria, 27 wells are filled. The Steer's Replicator is then used to inoculate both the neutral and alkaline pH nutrient agar petri plates.
(§3) The inoculated petri plates are incubated at 30° C. for 48 hours and then read to determine if the test compound which is incorporated into the agar prevented growth of the respective bacteria.
(§4) Table II lists the bacteria, yeast and fungi used in the MIC test described above along with their respective American Type Culture Collection (ATCC) identification numbers.

[2] = tested on: Candida albicans (Ca); test: Minimum inhibitory concentration (MIC) in malt yeast agar; type: cell-based, Candida albicans ATCC 10231; details: malt yeast agar; 30° C.; 48 hours for yeast; read-out: Minimum Inhibitory Concentration, Ca
Protocol: as §1
(§5) The inoculation with the yeast and fungi is accomplished as follows. Cultures of yeast and fungi are incubated for seven days on malt yeast agar at 30° C. These cultures are used to prepare suspensions by the following procedure. A suspension of each organism is prepared by adding 10 ml of sterile saline and 10 microliters of octylphenoxy polyethoxy ethanol to the agar slant of yeast or fungi. The sterile saline/octylphenoxy polyethoxy ethanol solution is then agitated with a sterile swab to suspend the microorganism grown on the slant. Each resulting suspension is diluted into sterile saline (1 part suspension: 9 parts sterile saline). Aliquots of these dilutions are placed in individual wells of Steer's Replicator and petri plates inoculated as previously described. The petri plates are incubated at 30° C. and read after 48 hours for yeast and 72 hours for fungi.
as §4

[3] = tested on: Salmonella choleraesuis (Sc); test: Minimum inhibitory concentration (MIC) in nutrient agar; type: cell-based, Salmonella choleraesuis ATCC 10708; details: Salmonella enterica, 48 h
Protocol: as §1, §2, §3, §4

[4] = tested on: Enterobacter aerogenes (Ea); test: as above; type: cell-based, Enterobacter aerogenes ATCC 13048; details: Klebsiella aerogenes, 48 h
Protocol: as §1, §2, §3, §4

[5] = tested on: Aureobasidium pullulan (Ap); test: Minimum inhibitory concentration (MIC) in malt yeast agar; type: cell-based, Aureobasidium pullulan ATCC 16622; details: read-out: Minimum Inhibitory Concentration, Ap
Protocol: as §1, §5, §4

[6] = tested on: Penicillium chrysogenum (Pc); test: as above; type: cell-based, Penicillium chrysogenum ATCC 9480; details: malt yeast agar; 30° C.; 72 hours for fungi; read-out: Minimum Inhibitory Concentration, Pc
Protocol: as §1, §5, §4

[7] = tested on: Fusarium oxysporum (Fo); test: as above; type: cell-based, Fusarium oxysporum ATCC 48112; details: malt yeast agar; 30° C.; 72 hours for fungi; read-out: Minimum Inhibitory Concentration, Fo
Protocol: as §1, §5, §4

[8] = tested on: Proteus vulgaris (Pv); test: Minimum inhibitory concentration (MIC) in nutrient agar; type: cell-based, Proteus vulgaris ATCC 881; details: 48 h
Protocol: as §1, §2, §3, §4

[9] = tested on: Pseudomonas aeruginosa (PRD-10); test: as above; type: cell-based, Pseudomonas aeruginosa ATCC 15442; details: 48 h
Protocol: as §1, §2, §3, §4

[10] = tested on: Bacillus subtilis (Bs); test: as above; type: cell-based, Bacillus subtilis ATCC 8473; details: 48 h
Protocol: as §1, §2, §3, §4

[11] = tested on: Trichoderma viride (Tv); test: Minimum inhibitory concentration (MIC) in malt yeast agar; type: cell-based, Trichoderma viride ATCC 8678; details: malt yeast agar; 30° C.; 72 hours for fungi; read-out: Minimum Inhibitory Concentration, Tv
Protocol: as §1, §5, §4

[12] = tested on: Klebsiella pneumoniae (Kp); test: Minimum inhibitory concentration (MIC) in nutrient agar; type: cell-based, Klebsiella pneumoniae ATCC 8308
Protocol: as §1, §2, §3, §4

[13] = tested on: Aspergillus niger (An); test: Minimum inhibitory concentration (MIC) in malt yeast agar; type: cell-based, Aspergillus niger ATCC 16404; details: malt yeast agar; 30° C.; 72 hours for fungi; read-out: Minimum Inhibitory Concentration, An
Protocol: as §1, §5, §4

[14] = tested on: Saccharomyces cerevisiae (Sc); test: as above; type: cell-based, Saccharomyces cerevisiae ATCC 4105; details: malt yeast agar, 30° C., 48 hours for yeast, read-out: Minimum Inhibitory Concentration, Sc
Protocol: as §1, §5, §4

[15] = tested on: Staphylococcus aureus (Sa); test: Minimum inhibitory concentration (MIC) in nutrient agar; type: cell-based, Staphylococcus aureus ATCC 6538
Protocol: as §1, §2, §3, §4

[16] = tested on: Pseudomonas aeruginosa (Pa); test: as above; type: cell-based, Pseudomonas aeruginosa ATCC 10145; details: 48 hours
Protocol: as §1, §2, §3, §4

[17] = pH 6.8, read-out: Minimum Inhibitory Concentration, Ec
[18] = pH 8.2, read-out: Minimum Inhibitory Concentration, Ec
[19] = pH 6.8, read-out: Minimum Inhibitory Concentration, Sc
[20] = pH 8.2, read-out: Minimum Inhibitory Concentration, Sc
[21] = pH 6.8, read-out: Minimum Inhibitory Concentration, Ea
[22] = pH 8.2, read-out: Minimum Inhibitory Concentration, Ea
[23] = pH 6.8, read-out: Minimum Inhibitory Concentration, Pv
[24] = pH 8.2, read-out: Minimum Inhibitory Concentration, Pv
[25] = pH 6.8, read-out: Minimum Inhibitory Concentration, PRD
[26] = pH 8.2, read-out: Minimum Inhibitory Concentration, PRD
[27] = pH 6.8, read-out: Minimum Inhibitory Concentration, Bs
[28] = pH 8.2, read-out: Minimum Inhibitory Concentration, Bs
[29] = 48 h, pH 8.2, read-out: Minimum Inhibitory Concentration, Kp
[30] = pH 6.8, nutrient agar, 30° C., 48 hours, read-out: Minimum Inhibitory Concentration, Kp
[31] = 48 h, pH 8.2, read-out: Minimum Inhibitory Concentration, Sa
[32] = pH 6.8, nutrient agar, 30° C., 48 hours, read-out: Minimum Inhibitory Concentration, Sa
[33] = malt yeast agar, 30° C., 48 hours for yeast and 72 hours for fungi

Compound	MIC [1, 17]	MIC [1, 18]	MIC [2]	MIC [3, 19]	MIC [3, 20]	MIC [4, 21]	MIC [4, 22]	MIC [6]	MIC [7]	MIC [8, 23]	MIC [8, 24]	MIC [9, 25]	MIC [9, 26]	MIC [10, 27]	MIC [10, 28]	MIC [11]	MIC [12, 29]	MIC [12, 30]	MIC [13]	MIC [14]	also measured
N#CC(C#N)=C1Sc2nc3cc(Cl)c([N+](=O)[O-])cc3nc2S1 [Q, 6-chloro-7-nitro-1,3-dithiolo-(4,5-b)-quinoxaline-2-ylidene-propanedinitrile]	> 500 µg/mL	> 500 µg/mL	500 µg/mL (≈ 1440 µM)	> 500 µg/mL	> 500 µg/mL	> 500 µg/mL	> 500 µg/mL	500 µg/mL (≈ 1440 µM)	> 500 µg/mL	> 500 µg/mL	> 500 µg/mL	> 500 µg/mL	> 500 µg/mL	> 500 µg/mL	> 500 µg/mL	> 500 µg/mL	> 500 µg/mL	> 500 µg/mL	500 µg/mL (≈ 1440 µM)	500 µg/mL (≈ 1440 µM)	MIC [5]: 50 µg/mL (≈ 144 µM); MIC [15, 31]: > 500 µg/mL; MIC [15, 32]: > 500 µg/mL; MIC ([16]; pH 6.8, 30° C.): > 500 µg/mL; MIC ([16]; pH 8.2, 30° C.): > 500 µg/mL
Cc1ccc2nc3c(nc2c1)SC(=C(C#N)C#N)S3 [N, 6-methyl-1,3-dithiolo-(4,5-b)-quinoxaline-2-ylidene-propanedinitrile]	> 500 µg/mL	> 500 µg/mL	> 500 µg/mL	500 µg/mL (≈ 1770 µM)	> 500 µg/mL	> 500 µg/mL	> 500 µg/mL	500 µg/mL (≈ 1770 µM)	> 500 µg/mL	> 500 µg/mL	> 500 µg/mL	> 500 µg/mL	> 500 µg/mL	> 500 µg/mL	> 500 µg/mL	> 500 µg/mL	> 500 µg/mL	> 500 µg/mL	500 µg/mL (≈ 1770 µM)	> 500 µg/mL	MIC [5, 33]: 500 µg/mL (≈ 1770 µM); MIC [15, 31]: > 500 µg/mL; MIC [15, 32]: > 500 µg/mL; MIC ([16]; pH 6.8, 30° C.): > 500 µg/mL; MIC ([16]; pH 8.2, 30° C.): > 500 µg/mL
N#CC(C#N)=C1Sc2nc3ccc(C(=O)c4ccccc4)cc3nc2S1 [W, 6-benzoyl-1,3-dithiolo-(4,5-b)-quinoxaline-2-ylidene-propanedinitrile]	> 500 µg/mL	> 500 µg/mL	> 500 µg/mL	> 500 µg/mL	> 500 µg/mL	> 500 µg/mL	> 500 µg/mL	> 500 µg/mL	> 500 µg/mL	> 500 µg/mL	> 500 µg/mL	> 500 µg/mL	> 500 µg/mL	> 500 µg/mL	> 500 µg/mL	> 500 µg/mL	> 500 µg/mL	> 500 µg/mL	> 500 µg/mL	> 500 µg/mL	MIC [5, 33]: 500 µg/mL (≈ 1340 µM); MIC [15, 31]: > 500 µg/mL; MIC [15, 32]: > 500 µg/mL; MIC ([16]; pH 6.8, 30° C.): > 500 µg/mL; MIC ([16]; pH 8.2, 30° C.): > 500 µg/mL
